# Results taken from US12084437B2, “Halo-substituted piperidines as orexin receptor modulators” (AstraZeneca AB, priority 2016, dated 2024).
# Tests used:
# OX1 = target: T1, OX1 (Homo sapiens, UniProt O43613); assay: Orexin receptor cell-based functional assay, [Ca2+]i by FLIPR, CHO-OX1 cells; details: FLIPR calcium, antagonism of EC90 of [OX], read-out: OXI, IC50
# T1 construct: expressed in transfected cells; host or cells: CHO (CHO-OX1)
# T1 sequence (O43613 1-425): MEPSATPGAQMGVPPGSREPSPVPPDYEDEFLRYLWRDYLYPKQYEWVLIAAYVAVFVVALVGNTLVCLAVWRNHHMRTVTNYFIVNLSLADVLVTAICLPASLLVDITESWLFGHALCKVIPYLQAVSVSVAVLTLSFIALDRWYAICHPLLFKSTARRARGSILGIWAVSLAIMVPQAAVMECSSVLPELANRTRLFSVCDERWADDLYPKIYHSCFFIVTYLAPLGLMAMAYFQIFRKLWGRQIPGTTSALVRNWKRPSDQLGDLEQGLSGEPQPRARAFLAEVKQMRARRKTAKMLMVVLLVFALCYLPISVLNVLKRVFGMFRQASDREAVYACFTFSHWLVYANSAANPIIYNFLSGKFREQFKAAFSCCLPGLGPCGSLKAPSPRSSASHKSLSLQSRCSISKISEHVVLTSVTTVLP
# [1] = Metabolic stability and intrinsic clearance in rat hepatocytes; type: in vitro ADME; details: cryopreserved rat hepatocytes (suspension), 1 uM compound, 37 C, read-out: rHeps CLint
# Method: Stock solutions of compounds and control compounds were prepared in 10 mM in appropriate solvent, such as DMSO. L-15 medium was placed in a 37° C. water bath and allowed to warm for at least 15 minutes prior to use. A quenching plate was prepared by adding 80 μL of acetonitrile to each well of a 96-well plate. In a new 96-well plate, the 10 mM stock solution of test compounds and control compounds were diluted to 100 μM by combining 198 μL of acetonitrile and 2 μL of the 10 mM stock. A vial of cryopreserved rat hepatocytes were removed from storage and maintained at cryogenic temperatures until thawing. The cells were thawed as quickly as possible, in a 37° C. water bath under gentle shaking. The vials were kept in the water bath until all ice crystals have dissolved and are no longer visible. After the thawing was completed, the vials were sprayed with 70% ethanol and transferred to a biosafety cabinet. […]
# Cells were then counted with Cellometer® Vision. […] Counted cells were then diluted with incubation medium to a working cell density of 1.0×10^6 viable cells/mL. […]
# All calculations were carried out using Microsoft Excel. Peak areas were determined from extracted ion chromatograms. in vitro half-life (t½) of parent compound was determined by regression analysis of the Ln percent parent disappearance vs. time curve.
IC50 (OX1) [nM],hepatocyte CLint at 1 µM [1] [µL/min/1e6 cells],SMILES
2,107,"Cc1nc(C(=O)N2CC(F)(F)C[C@@H](C)[C@H]2CNc2ccc(C(F)(F)F)cn2)c(-c2ccc(F)cc2)s1 [Compound 185, ((2S,3R)-5,5-difluoro-3-methyl-2-(((5-(trifluoromethyl)pyridin-2-yl)amino)methyl)piperidin-1-yl)(5-(4-fluorophenyl)-2-methylthiazol-4-yl)methanone]"
4,3.8,"C[C@@H]1CC(F)(F)CN(C(=O)c2nn(C)cc2-c2ccc(Cl)cc2)[C@@H]1CNc1cnc(C(F)(F)F)cn1 [Compound 129, (4-(4-chlorophenyl)-1-methyl-1H-pyrazol-3-yl)((2S,3R)-5,5-difluoro-3-methyl-2-(((5-(trifluoromethyl)pyrazin-2-yl)amino)methyl)piperidin-1-yl)methanone]"
